Common to all, as to format: binding
The target of assay [1] is T1, PCSK9 (Homo sapiens, UniProt Q8NBP7).
T1 construct: biotin (biotinylated)
Nature of the assay: PCSK9 Alexa FRET Plus assay (displacement of AlexaFluor647-tagged cyclic peptide Reagent B). Conditions: 0.5 nM PCSK9, 960 nM AF cyclic peptide Reagent B. The procedure: A solution containing 1 nM biotinylated PCSK9+2.5 nM Lance Streptavidin Europium (Strep-Eu) was made in 50 mM HEPES pH 7.4, 0.15 M NaCl, 5 mM CaCl2, 0.01% BSA, and 0.01% Surfactant P20. A separate solution containing 1920 nM of the AlexaFluor tagged cyclic peptide was made in the same buffer system. An Echo was used to transfer 0.075 ul of compound plus 0.675 ul of DMSO to each well of an assay plate followed by the addition of 15 ul of PCSK9+Stept-Eu and 15 ul of AF peptide. The final assay volume was 30.750 ul containing 0.5 nM PCSK9, 1.25 nM Strep-Eu, and 960 nM AF cyclic peptide. The reaction was incubated at room temperature for at least two hours prior to fluorescence measurements using an Envision Multilabel Reader. IC50 values were determined by fitting data to a sigmoidal dose-response curve using nonlinear regression. Ki was then calculated from the IC50 and the KD of AF cyclic peptide. Counts (B-counts) of the europium-labeled PCSK9 were followed to observe if compounds were adversely affecting PCSK9. A fall off of the B-counts likely indicated a false positive of inhibition. Data from this procedure was reported as “P=‘numerical value’ (nanomolar)”

Assay [2] addresses T1, PCSK9. Nature of the assay: PCSK9 Alexa FRET Standard assay (displacement of AlexaFluor647-tagged cyclic peptide Reagent A). Conditions: 0.5 nM PCSK9, 20 nM AF cyclic peptide Reagent A. The procedure: A solution containing 1 nM biotinylated PCSK9+2.5 nM Lance Streptavidin Europium (Strep-Eu) was made in 50 mM HEPES pH 7.4, 0.15 M NaCl, 5 mM CaCl2, 0.01% BSA, and 0.01% Surfactant P20. A separate solution containing 40 nM of the AlexaFluor tagged cyclic peptide was made in the same buffer system. An Echo was used to transfer 0.750 ul of compound to an assay plate followed by the addition of 15 ul of PCSK9+Stept-Eu and 15 ul of AF peptide. The final assay volume was 30.750 ul containing 0.5 nM PCSK9, 1.25 nM Strep-Eu, and 20 nM AF cyclic peptide. The reaction was incubated at room temperature for at least two hours prior to fluorescence measurements using an Envision Multilabel Reader. IC50 values were determined by fitting data to a sigmoidal dose-response curve using nonlinear regression. Ki was then calculated from the IC50 and the KD of AF cyclic peptide. Counts (B-counts) of the europium-labeled PCSK9 were followed to observe if compounds were […]. A fall off of the B-counts likely indicated a false positive of inhibition. Data from this procedure was reported as “A=‘numerical value’ (nanomolar)”

The target in assay [3] is human PCSK9 / human LDLR EGFa domain interaction (Homo sapiens, UniProt Q8NBP7). Nature of the assay: TR-FRET assay of inhibition of the PCSK9-LDLR protein-protein interaction. Conditions: 20 nM biotinylated human PCSK9 + 20 nM his-tagged human LDLR EGFa domain, 2 hours room temperature. The method in brief: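 Biotinylated human PCSK9 (20 nM) and His-tagged human LDLR EGFa domain (20 nM) incubated with Ulight-streptavidin and Eu-anti-His (5 nM each), 2 h at room temperature, in HEPES pH buffer with 5 mM CaCl2. TR-FRET read-out; IC50 from 4-parameter fit of dose-response.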
Sequence of human PCSK9 / human LDLR EGFa domain interaction (Q8NBP7 153-692): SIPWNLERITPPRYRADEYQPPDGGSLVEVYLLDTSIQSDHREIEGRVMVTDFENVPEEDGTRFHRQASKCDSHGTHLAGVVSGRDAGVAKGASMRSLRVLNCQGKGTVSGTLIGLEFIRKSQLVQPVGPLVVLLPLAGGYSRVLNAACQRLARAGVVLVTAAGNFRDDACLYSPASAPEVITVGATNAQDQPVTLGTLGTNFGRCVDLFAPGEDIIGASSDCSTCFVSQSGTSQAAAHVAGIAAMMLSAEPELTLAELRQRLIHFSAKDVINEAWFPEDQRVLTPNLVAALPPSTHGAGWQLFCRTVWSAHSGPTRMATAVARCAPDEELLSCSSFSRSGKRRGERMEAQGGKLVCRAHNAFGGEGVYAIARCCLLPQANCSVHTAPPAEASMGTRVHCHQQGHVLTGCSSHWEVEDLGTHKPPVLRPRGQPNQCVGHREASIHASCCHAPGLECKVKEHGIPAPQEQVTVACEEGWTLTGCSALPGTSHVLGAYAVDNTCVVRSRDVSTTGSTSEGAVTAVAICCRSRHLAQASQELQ
Sequence of human PCSK9 / human LDLR EGFa domain interaction (Q8NBP7 31-152 partner limits assumed): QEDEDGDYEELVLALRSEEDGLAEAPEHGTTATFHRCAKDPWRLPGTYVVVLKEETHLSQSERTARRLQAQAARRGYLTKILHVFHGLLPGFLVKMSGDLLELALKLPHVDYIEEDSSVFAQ
In general terms: In TR-FRET formats the signal depends on donor and acceptor labels being close together.

*1 amine or outer side, *2 acyl side, *3 side chain or, on linkers, in order; H or OH if unused. Where a SMILES comes first, the peptide text is derived from it. Bridges are numbered along the chain shown (N, C = ends). [ ]: non-standard residue; d: D form. Phe(3-CF3) = N[C@@H](Cc1cccc(C(F)(F)F)c1)C(=O)O; Trp(5-F) = N[C@@H](Cc1c[nH]c2ccc(F)cc12)C(=O)O; Trp(7-aza) = N[C@@H](Cc1c[nH]c2ncccc12)C(=O)O; pT = C[C@@H](OP(=O)(O)O)[C@H](N)C(=O)O; mXylylene = c1cc(C[*:1])cc(C[*:2])c1; pS = N[C@@H](COP(=O)(O)O)C(=O)O; aThr = C[C@H](O)[C@H](N)C(=O)O; Tle = CC(C)(C)[C@H](N)C(=O)O; αMeV = CC(C)[C@](C)(N)C(=O)O; Aib = CC(C)(N)C(=O)O; Mpa = O=C(O)CCS

T1 sequence (Q8NBP7 153-692): as the sequence (Q8NBP7 153-692) above

The term IC50 denotes the point on the concentration scale where inhibition reaches its midpoint. Turning to `CC1O[C@@H](C)[C@@H]2NC(=O)[C@@]1(C)NC(=O)[C@H](Cc1ccc(OP(=O)(O)O)cc1)NC(=O)[C@H](C)NC(=O)C(C)(C)NC(=O)[C@H](Cc1c[nH]c3ncccc13)NC(=O)[C@H]([C@@H](C)O)NC(=O)[C@@H]1CCCN1C(=O)[C@H](Cc1ccc(O)cc1)NC(=O)[C@H](C(C)(C)C)NC(=O)CCSCc1cccc(c1)CSC[C@@H](C(N)=O)NC2=O` (stereo partly drawn) [Compound 014], the IC50 (at PCSK9 [1]; at PCSK9 [2]; in assay [3]) was 1 to 100 nM throughout.
For the compound `CC(C)[C@]1(C)NC(=O)[C@H](Cc2ccc(O)cc2)NC(=O)[C@H](C)NC(=O)C(C)(C)NC(=O)[C@H](Cc2c[nH]c3ncccc23)NC(=O)[C@H]([C@@H](C)O)NC(=O)[C@@H]2CCCN2C(=O)[C@H](Cc2ccc(O)cc2)NC(=O)[C@H](C(C)(C)C)NC(=O)CCSCc2cccc(c2)CSC[C@@H](C(N)=O)NC(=O)[C@H]([C@@H](C)OP(=O)(O)O)NC1=O` [Compound 015] ([Mpa][Tle]YPT[Trp(7-aza)][Aib]AY[αMeV][pT]C-NH2; linker 1-12 via mXylylene), the IC50 (at PCSK9 [1]; at PCSK9 [2]; in assay [3]) was 1 to 100 nM each time.
As for `CC(C)[C@]1(C)NC(=O)[C@H](Cc2ccc(O)cc2)NC(=O)[C@H](C)NC(=O)C(C)(C)NC(=O)[C@H](Cc2c[nH]c3ncccc23)NC(=O)[C@H]([C@@H](C)O)NC(=O)[C@@H]2CCCN2C(=O)[C@H](Cc2ccc(O)cc2)NC(=O)[C@H](C(C)(C)C)NC(=O)CCSCc2cccc(c2)CSC[C@@H](C(N)=O)NC(=O)[C@H](COP(=O)(O)O)NC1=O` [Compound 016] ([Mpa][Tle]YPT[Trp(7-aza)][Aib]AY[αMeV][pS]C-NH2; linker 1-12 via mXylylene), the IC50 (at PCSK9 [1]; on PCSK9 [2]; in assay [3]) was 1 to 100 nM each time.
Regarding `CC(=O)N[C@H]1CSCc2cccc(c2)CSC[C@H](C(N)=O)NC(=O)[C@H]([C@H](C)O)NC(=O)[C@](C)(C(C)C)NC(=O)[C@H](Cc2ccc(O)cc2)NC(=O)[C@H](C)NC(=O)C(C)(C)NC(=O)[C@H](Cc2c[nH]c3ncccc23)NC(=O)[C@H]([C@@H](C)O)NC(=O)[C@@H]2CCCN2C(=O)[C@H](Cc2ccccc2)NC(=O)[C@H](C(C)(C)C)NC1=O` [Compound 040] (Ac-C[Tle]FPT[Trp(7-aza)][Aib]AY[αMeV][aThr][dC]-NH2; linker 1-12 via mXylylene), the IC50 on PCSK9 [1] and at PCSK9 [2] was 1 to 100 nM throughout.
Consider `CC(=O)N[C@H]1CSCc2cccc(c2)CSC[C@H](C(N)=O)NC(=O)[C@H]([C@H](C)O)NC(=O)[C@](C)(C(C)C)NC(=O)[C@H](Cc2ccc(O)cc2)NC(=O)[C@H](C)NC(=O)C(C)(C)NC(=O)[C@H](Cc2c[nH]c3ncccc23)NC(=O)[C@H]([C@@H](C)O)NC(=O)[C@@H]2CCCN2C(=O)[C@H](Cc2cccc(C(F)(F)F)c2)NC(=O)[C@H](C(C)(C)C)NC1=O` [Compound 041] (Ac-C[Tle][Phe(3-CF3)]PT[Trp(7-aza)][Aib]AY[αMeV][aThr][dC]-NH2; linker 1-12 via mXylylene), for which the IC50 lay within 500 to 5000 nM at PCSK9 [1] and 21000 to 50000 nM at PCSK9 [2].
For `CC(=O)N[C@H]1CSCc2cccc(c2)CSC[C@H](C(N)=O)NC(=O)[C@H]([C@H](C)O)NC(=O)[C@](C)(C(C)C)NC(=O)[C@H](Cc2ccc(O)cc2)NC(=O)[C@H](C)NC(=O)C(C)(C)NC(=O)[C@H](Cc2c[nH]c3ncccc23)NC(=O)[C@H]([C@@H](C)O)NC(=O)[C@@H]2CCCN2C(=O)[C@H](Cc2c[nH]c3ccc(F)cc23)NC(=O)[C@H](C(C)(C)C)NC1=O` [Compound 042] (Ac-C[Tle][Trp(5-F)]PT[Trp(7-aza)][Aib]AY[αMeV][aThr][dC]-NH2; linker 1-12 via mXylylene), in that order: 1 to 100 nM and 1 to 100 nM.

The values are drawn from patent US11505575B2, “Cyclic polypeptides for PCSK9 inhibition” (Merck Sharp & Dohme LLC, priority 2018, dated 2022).
